Literature values in paper PMC7196435 (Bioorganic & medicinal chemistry letters, 2020).

System: CYP46A1
Details: at 1 μM concentration

SMILES: O=C(NCc1ccccc1)N1CCN(c2cncnc2-c2ccccc2)CC1 [compound 1]
- inhibitory activity towards CYP46A1: 95%
